Measurements published in patent US20010000786A1, “Product for promoting weight loss in overweight dogs” (priority 1998, published 2001).

Experiments:
overweight dogs [1] = assay: Body weight and food intake of overweight dogs fed low-fat diets with supplemental L-carnitine; type: in vivo, beagle dogs; details: for average voluntary consumption of the diet: seven weeks of feeding; for body weight change: seven weeks ad libitum, P<0.05 from control
From the text: (§1) Thirty adult ovariohysterectomized female beagle dogs were used to study the effects of L-carnitine supplementation on weight loss. All of the animals were current on their vaccination and parasite prevention program. The dogs were housed individually in oversize pens and identified by a unique ear tattoo. Fresh water was provided ad libitum during the entire study period. Food intake was adjusted as necessary to achieve the desired weight for the study period.
Three dietary treatments were evaluated. The study consisted of three periods: weight gain, maintenance, and weight loss. During the eleven-week weight gain period, all dogs were fed a single diet Eukanuba Veterinary Diets® Nutritional Recovery Formula™ which contains 36.1 wt % protein, 26.1 wt % fat, and 2.1 wt % crude fiber) ad libitum.
(§2) At the initiation of the maintenance phase of the study (baseline or day 0), the dogs were randomized based on body weight into three dietary treatment groups of ten dogs each with a three day feed transition period starting on day 0. Each treatment group was randomly assigned to one of three low-fat diets (Table 1). The only difference between diets was the addition of 0, 50, or 100 ppm supplemental L-carnitine. No differences in the initial body weight or body condition score existed between groups.
The dogs were on 100% experimental diet on day 3 and were fed ad libitum during the seven-week maintenance phase of the study.
(§3) During the twelve-week weight loss phase of the study, the same experimental diets were offered as during the maintenance phase. However, the food intake was decreased to produce approximately 1.5 to 2.5% body weight loss per week. Exact amounts of experimental diets were fed to the dogs at approximately the same time each day, and remaining feed amounts were weighed the following day. Food intake and body weight were monitored daily and weekly, respectively. Whole body composition using the Dual Energy X-ray Absorptiometer (DEXA), and blood samples for CBC and chemistry were collected periodically during the study. Whole Body Composition by Dual Energy X-ray Absorptiometry. The dogs were scanned with a Hologic QDR-2000 Plus Dual-Energy X-Ray Absorptiometry (DEXA) bone densitometer, supported with Hologic MXA software, version 8.0. All dogs were anesthetized and placed on the Dual Energy X-ray Absorptiometry (DEXA) table in dorsal recumbency, with legs stretched caudally to avoid overlap of the legs over the body. The dogs were scanned using the Enhanced Array Whole Body software. The body composition measurements recorded consisted of surface area (cm^2), bone mineral content (BMC), bone mineral density (BMD), lean mass, fat content, percent fat, and estimated body weight. All measurements were reported in grams except for percent fat and area (cm^2). Percent lean and percent BMC were calculated from the lean mass, BMC, and estimated body weight data from the DEXA results.
A repeated measure classification analysis of variance was used to study “Treatment” and time dependent “Treatment×Time” effects (Gill and Hafs, J. Animal Sci. 33(2):331(1971)). The variables from the complete blood count, blood chemistry, body composition and body weights were studied using this analysis. All F-tests and mean separations using the Least Square Difference (LSD) used 0.05 Type 1 Error rate. […]

overweight dogs [2] = assay: Whole body composition by Dual Energy X-ray Absorptiometry (DEXA); type: in vivo, beagle dogs
From the text: as §1, §2, §3
The whole body composition was performed concomitantly and under anesthesia. The anesthetic regimen consisted of Atropine (0.01 mg/lb) as a pre-anesthetic, the combination Xylazine/Telazol/Torbugesic (0.8/6.7/0.13 mg/kg) as induction and Isoflurane (Aerrane, Ohmeda Pharmaceutical Products, Liberty Corner, N.J.) as a maintenance agent using a nose cone.
A repeated measure classification analysis of variance was used to study “Treatment” and time dependent “Treatment×Time” effects (Gill and Hafs, J. Animal Sci. 33(2):331(1971)). The variables from the complete blood count, blood chemistry, body composition and body weights were studied using this analysis. All F-tests and mean separations using the Least Square Difference (LSD) used 0.05 Type 1 Error rate. One degree of freedom comparisons between experimental diets B versus C (comparison 1) and A versus B and C (comparison 2) were computed for the body composition and body weight variables. Comparisons 1 and 2 form an orthogonal set. An a of 0.05 was used to test for non-zero value of the mean of the two groups defined per contract. The “Treatment×Time” interaction was investigated by computing a test for linear, quadratic, and cubic response over time for each treatment. Then a test of parallelism, equal quadric response and equal cubic response was done to test equality of trend in response among treatments. An α of 0.05 for the F-tests was used in all cases. All computations were done using SAS (statistical analysis system) software (1989).

[3] = 50 ppm supplemental carnitine, Week 0
[4] = 50 ppm supplemental carnitine, Week 7
[5] = 100 ppm supplemental carnitine, Week 0
[6] = 100 ppm supplemental carnitine, Week 7

SMILES: C[N+](C)(C)C[C@H](O)CC(=O)[O-] [L-carnitine]
- total weight loss per total food intake compared with no supplementation (overweight dogs [1]; 50 and 100 ppm, FIG. 7, P<0.05): greater total weight loss per total food intake
- average voluntary consumption of the diet (overweight dogs [1]; 50 ppm carnitine): 1574 g/week
- body weight change (overweight dogs [1]; 50 ppm supplemental carnitine in low-fat diet): −6.4%
- average voluntary consumption of the diet (overweight dogs [1]; 100 ppm carnitine): 1567 g/week
- body weight change (overweight dogs [1]; 100 ppm supplemental carnitine in low-fat diet): −5.7%
- lean body mass compared with no supplementation (overweight dogs [2]; 50 and 100 ppm, FIG. 6): leaner body mass
- body fat loss compared to no (0 ppm) supplementation (overweight dogs [2]; 50 and 100 ppm, difference day 0 to day 49, day 92, day 133 as percentage of day 0, FIG. 5): more body fat loss (P<0.05)
- body fat loss compared to 0 ppm supplementation (overweight dogs [2]; 50 and 100 ppm, difference day 0 to day 49 as percentage of day 0, FIG. 4): more body fat loss (P<0.05)
- BMC (bone mineral content) as percent of total body mass (overweight dogs [2]; [3]): 1.6%
- Fat mass as percent of total body mass (overweight dogs [2]; [3]): 42.4%
- LBM (lean body mass) as percent of total body mass (overweight dogs [2]; [3]): 56.0%
- BMC (bone mineral content) as percent of total body mass (overweight dogs [2]; [4]): 1.7%
- Fat mass as percent of total body mass (overweight dogs [2]; [4]): 37.8%
- LBM (lean body mass) as percent of total body mass (overweight dogs [2]; [4]): 60.5%
- BMC (bone mineral content) as percent of total body mass (overweight dogs [2]; [5]): 1.6%
- Fat mass as percent of total body mass (overweight dogs [2]; [5]): 42.5%
- LBM (lean body mass) as percent of total body mass (overweight dogs [2]; [5]): 55.9%
- BMC (bone mineral content) as percent of total body mass (overweight dogs [2]; [6]): 1.6%
- Fat mass as percent of total body mass (overweight dogs [2]; [6]): 38.9%
- LBM (lean body mass) as percent of total body mass (overweight dogs [2]; [6]): 59.5%
